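Exposure lasted 48 hours, with cells grown in 96-well plates and compounds tested at five concentrations. The concentration for full growth arrest is given as TGI.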
Columns and labels:
Experiment in all cases: NCI tumour cell line growth inhibition, 48 h
HT29 colon = tested on: HT29 colon
T-47D breast = tested on: T-47D breast
SF-295 CNS = tested on: SF-295 CNS
SF-268 CNS = tested on: SF-268 CNS
ACHN renal = tested on: ACHN renal
SF-539 CNS = tested on: SF-539 CNS
NCI-H522 lung = tested on: NCI-H522 lung
HOP-92 NSCLC = tested on: HOP-92 NSCLC
A498 renal = tested on: A498 renal
NCI-H460 lung = tested on: NCI-H460 lung
HCC-2998 colon = tested on: HCC-2998 colon
UO-31 renal = tested on: UO-31 renal
SR leukemia = tested on: SR leukemia
MOLT-4 leukemia = tested on: MOLT-4 leukemia
SNB-19 CNS = tested on: SNB-19 CNS
HOP-62 NSCLC = tested on: HOP-62 NSCLC
OVCAR-3 ovarian = tested on: OVCAR-3 ovarian
KM12 colon = tested on: KM12 colon
SK-OV-3 ovarian = tested on: SK-OV-3 ovarian
HL-60(TB) leukemia = tested on: HL-60(TB) leukemia
NCI-H23 lung = tested on: NCI-H23 lung
OVCAR-8 ovarian = tested on: OVCAR-8 ovarian
HCT-116 colon = tested on: HCT-116 colon
RXF 393 renal = tested on: RXF 393 renal
TK-10 renal = tested on: TK-10 renal
A549 NSCLC = tested on: A549 NSCLC
SW-620 colon = tested on: SW-620 colon
SK-MEL-28 melanoma = tested on: SK-MEL-28 melanoma
RPMI-8226 leukemia = tested on: RPMI-8226 leukemia
M14 melanoma = tested on: M14 melanoma
HCT-15 colon = tested on: HCT-15 colon
IGROV1 ovarian = tested on: IGROV1 ovarian
DU-145 prostate = tested on: DU-145 prostate
786-0 renal = tested on: 786-0 renal
CAKI-1 renal = tested on: CAKI-1 renal
K-562 leukemia = tested on: K-562 leukemia
HS 578T breast = tested on: HS 578T breast
NCI-H226 lung = tested on: NCI-H226 lung
NCI/ADR-RES ovarian = tested on: NCI/ADR-RES ovarian
COLO 205 colon = tested on: COLO 205 colon
SN12C renal = tested on: SN12C renal
U251 CNS = tested on: U251 CNS
MCF7 breast = tested on: MCF7 breast
EKVX NSCLC = tested on: EKVX NSCLC
OVCAR-4 ovarian = tested on: OVCAR-4 ovarian
MDA-MB-435 = tested on: MDA-MB-435
PC-3 prostate = tested on: PC-3 prostate
MDA-MB-231 breast = tested on: MDA-MB-231 breast
OVCAR-5 ovarian = tested on: OVCAR-5 ovarian
SNB-75 CNS = tested on: SNB-75 CNS
SK-MEL-2 melanoma = tested on: SK-MEL-2 melanoma
UACC-62 melanoma = tested on: UACC-62 melanoma
SK-MEL-5 melanoma = tested on: SK-MEL-5 melanoma
UACC-257 melanoma = tested on: UACC-257 melanoma
BT-549 breast = tested on: BT-549 breast
MALME-3M melanoma = tested on: MALME-3M melanoma
LOX IMVI melanoma = tested on: LOX IMVI melanoma

Measured: TGI

CN(C(=O)c1ccncc1)c1ccccc1
> 100 µM: all assays above

— PubChem BioAssay (NCI)
